Source: patent publication US20250197387A1, “BCL-XL DEGRADERS AND USES THEREOF” (Kymera Therapeutics, Inc., priority 2021, published 2025)
Read-outs that look alike come from different tables or passages of the source.

What was measured:
Format in all cases: cell-based
MOLT-4 cells = test: CTG (CellTiter-Glo) cell viability assay, MOLT-4; conditions: 3 day incubation, read-out: CTG Cell Viability Assay - MOLT-4 3 day: Average external-IC50
Outline: (§1)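 Nine-point 1:3 compound series topping at 10 μM (0.2% DMSO final) applied for 3 days to 10,000 MOLT-4 or Caki-2 cells per well, 37° C., 5% CO2. CellTiter-Glo luminescence read after 10 min at room temperature; three-parameter fit gave IC50.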

BCL-XL = biological target: T1, BCL-XL (Homo sapiens, UniProt Q07817); test: Bcl-xL ELISA degradation in MOLT-4 cells, 6 h; conditions: for DC50: read-out: Bcl-xL ELISA in MOLT-4 degradation 6 h: Mean external-Abs DC50
T1 construct: endogenous in cells; host or cells: MOLT-4
Procedure: The letter codes for BCL-XL DC50 include: A (<0.01 μM); B (0.01-0.1 μM); C (>[…]); D (>0.5-1.0 μM); and E (>1.0 μM). The letter codes for Dmax % include A (>75%); B (50 to 75%); C (<50%).

Caki-2 cells = test: CTG (CellTiter-Glo) cell viability assay, Caki-2; conditions: 3 day incubation, read-out: CTG Chempartner - Caki-2 3 day: Average external-IC50
Outline: as §1

T1 sequence (Q07817 whole entry): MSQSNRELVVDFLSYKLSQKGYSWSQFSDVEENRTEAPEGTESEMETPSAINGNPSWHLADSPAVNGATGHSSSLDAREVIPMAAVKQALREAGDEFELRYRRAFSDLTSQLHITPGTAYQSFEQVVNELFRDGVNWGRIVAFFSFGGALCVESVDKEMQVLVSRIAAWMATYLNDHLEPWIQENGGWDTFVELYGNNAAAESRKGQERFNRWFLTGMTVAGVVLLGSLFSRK

IC50 (MOLT-4 cells; Homo sapiens, MOLT-4, 72 h) | Dmax (BCL-XL) | DC50 (BCL-XL) | IC50 (MOLT-4 cells) | Bcl-xL ELISA in MOLT-4 degradation 6 h: Average Dmax % (BCL-XL) | Compound | IC50 (Caki-2 cells; Homo sapiens, 72 h) | IC50 (Caki-2 cells)
1000 to 3000 nM | 50 to 75% | 500 to 1000 nM | – | – | Cc1ncsc1-c1ccc([C@H](C)NC(=O)[C@@H]2C[C@@H](O)CN2C(=O)[C@@H](NC(=O)CCCCCS(=O)(=O)NC(=O)c2nc(N3CCc4cccc(C(=O)Nc5nc6ccccc6s5)c4C3)ccc2-c2cccc3c2cnn3C(C)C)C(C)(C)C)cc1 [I-302] | 1000 to 10000 nM | –
100 to 1000 nM | > 75% | 100 to 500 nM | – | – | Cc1ncsc1-c1ccc([C@H](C)NC(=O)[C@@H]2C[C@@H](O)CN2C(=O)[C@@H](NC(=O)c2ccc(N3CCC(S(=O)(=O)NC(=O)c4nc(N5CCc6cccc(C(=O)Nc7nc8ccccc8s7)c6C5)ccc4-c4cnn(CC5CCCCC5)c4C)CC3)cc2)C(C)(C)C)cc1 [I-303] | 1000 to 10000 nM | –
100 to 1000 nM | > 75% | < 10 nM | – | – | Cc1ncsc1-c1ccc([C@H](C)NC(=O)[C@@H]2C[C@@H](O)CN2C(=O)[C@@H](NC(=O)CCCS(=O)(=O)NC(=O)c2nc(N3CCc4cccc(C(=O)Nc5nc6ccccc6s5)c4C3)ccc2-c2cnn(CC3CCCCC3)c2C)C(C)(C)C)cc1 [I-304] | 1000 to 10000 nM | –
< 100 nM | > 75% | 10 to 100 nM | – | – | Cc1ncsc1-c1ccc([C@H](C)NC(=O)[C@@H]2C[C@@H](O)CN2C(=O)[C@@H](NC(=O)CCCCc2nc(C3CCCN(C(=O)c4nc(N5CCc6cccc(C(=O)Nc7nc8ccccc8s7)c6C5)ccc4-c4cnn(CC5CCCCC5)c4C)C3)no2)C(C)(C)C)cc1 (some centres unmarked) [I-306] | 1000 to 10000 nM | –
1000 to 3000 nM | < 50% | > 1000 nM | – | – | Cc1ncsc1-c1ccc([C@H](C)NC(=O)[C@@H]2C[C@@H](O)CN2C(=O)[C@@H](NC(=O)CCCc2ccc(S(=O)(=O)NCc3nc(N4CCc5cccc(C(=O)Nc6nc7ccccc7s6)c5C4)ccc3-c3cnn(CC4CCCCC4)c3C)cc2)C(C)(C)C)cc1 [I-307] | > 10000 nM | –
< 100 nM | > 75% | 100 to 500 nM | – | – | Cc1ncsc1-c1ccc([C@H](C)NC(=O)[C@@H]2C[C@@H](O)CN2C(=O)[C@@H](NC(=O)C2CCN(C3CCN(S(=O)(=O)NC(=O)c4nc(N5CCc6cccc(C(=O)Nc7nc8ccccc8s7)c6C5)ccc4-c4cnn(CC5CCCCC5)c4C)CC3)CC2)C(C)(C)C)cc1 [I-308] | 1000 to 10000 nM | –
1000 to 3000 nM | 50 to 75% | 100 to 500 nM | – | – | Cc1ncsc1-c1ccc([C@H](C)NC(=O)[C@@H]2C[C@@H](O)CN2C(=O)[C@@H](NC(=O)CCCCCS(=O)(=O)NC(=O)c2nc(N3CCc4cccc(C(=O)Nc5nc6ccccc6s5)c4C3)ccc2-c2cccc(OC(C)C)c2C)C(C)(C)C)cc1 [I-309] | 1000 to 10000 nM | –
< 100 nM | > 75% | 10 to 100 nM | – | – | Cc1ncsc1-c1ccc([C@H](C)NC(=O)[C@@H]2C[C@@H](O)CN2C(=O)[C@@H](NC(=O)C2CCN(c3ccc(S(=O)(=O)NC(=O)c4nc(N5CCCc6c5nnc(Nc5nc7ccccc7s5)c6C)ccc4-c4cnn(CC5CCCCC5)c4C)cc3)CC2)C(C)(C)C)cc1 [I-310] | > 10000 nM | –
< 100 nM | > 75% | 100 to 500 nM | – | – | Cc1ncsc1-c1ccc([C@H](C)NC(=O)[C@@H]2C[C@@H](O)CN2C(=O)[C@@H](NC(=O)CCS(=O)(=O)NC(=O)c2nc(N3CCc4cccc(C(=O)Nc5nc6ccccc6s5)c4C3)ccc2-c2cnn(CC3CCCCC3)c2C)C(C)(C)C)cc1 [I-311] | 1000 to 10000 nM | –
< 100 nM | > 75% | 10 to 100 nM | – | – | Cc1ncsc1-c1ccc([C@H](C)NC(=O)[C@@H]2C[C@@H](O)CN2C(=O)[C@@H](NC(=O)CCCCCCS(=O)(=O)NC(=O)c2nc(N3CCc4cccc(C(=O)Nc5nc6ccccc6s5)c4C3)ccc2-c2cnn(CC3CCCCC3)c2C)C(C)(C)C)cc1 [I-312] | 1000 to 10000 nM | –
100 to 1000 nM | < 50% | > 1000 nM | – | – | Cc1ncsc1-c1ccc([C@H](C)NC(=O)[C@@H]2C[C@@H](O)CN2C(=O)[C@@H](NC(=O)C2CCC(O)(c3ccc(S(=O)(=O)NC(=O)c4nc(N5CCc6cccc(C(=O)Nc7nc8ccccc8s7)c6C5)ccc4-c4cnn(CC5CCCCC5)c4C)cc3)CC2)C(C)(C)C)cc1 (some centres unmarked) [I-314] | 1000 to 10000 nM | –
< 100 nM | > 75% | 10 to 100 nM | – | – | Cc1ncsc1-c1ccc([C@H](C)NC(=O)[C@@H]2C[C@@H](O)CN2C(=O)[C@@H](NC(=O)CCCCCS(=O)(=O)NC(=O)c2nc(N3CCc4cccc(C(=O)Nc5nc6ccccc6s5)c4C3)ccc2-c2ccnc(OC(C)C)c2C)C(C)(C)C)cc1 [I-315] | > 10000 nM | –
100 to 1000 nM | 50 to 75% | 100 to 500 nM | – | – | Cc1ncsc1-c1ccc([C@H](C)NC(=O)[C@@H]2C[C@@H](O)CN2C(=O)[C@@H](NC(=O)C2CCN(c3ccc(S(=O)(=O)NC(=O)c4nc(N5CCc6cccc(C(=O)Nc7nc8ccccc8s7)c6C5)ccc4-c4cnn(CC5CCCCC5)c4C)cc3CO)CC2)C(C)(C)C)cc1 [I-316] | > 10000 nM | –
100 to 1000 nM | > 75% | 10 to 100 nM | – | – | Cc1ncsc1-c1ccc([C@H](C)NC(=O)[C@@H]2C[C@@H](O)CN2C(=O)[C@@H](NC(=O)CCCCS(=O)(=O)NC(=O)c2nc(N3CCc4cccc(C(=O)Nc5nc6ccccc6s5)c4C3)ccc2-c2cnn(CC3CCCCC3)c2C)C(C)(C)C)cc1 [I-317] | 1000 to 10000 nM | –
< 100 nM | > 75% | 10 to 100 nM | – | – | Cc1ncsc1-c1ccc(CNC(=O)[C@@H]2C[C@@H](O)CN2C(=O)[C@@H](NC(=O)CCc2ccc(S(=O)(=O)NC(=O)c3nc(N4CCc5cccc(C(=O)Nc6nc7ccccc7s6)c5C4)ccc3-c3cnn(CC(C)C)c3C)cc2)C(C)(C)C)cc1 [I-318] | 1000 to 10000 nM | –
> 3000 nM | 50 to 75% | > 1000 nM | – | – | C#Cc1ccc(CNC(=O)[C@@H]2C[C@@H](O)CN2C(=O)[C@@H](NC(=O)CCc2ccc(S(=O)(=O)NC(=O)c3nc(N4CCc5cccc(C(=O)Nc6nc7ccccc7s6)c5C4)ccc3-c3cnn(CC(C)C)c3C)cc2)C(C)(C)C)cc1 [I-319] | > 10000 nM | –
1000 to 3000 nM | > 75% | 100 to 500 nM | – | – | Cc1ncsc1-c1ccc(CNC(=O)[C@@H]2C[C@@H](O)CN2C(=O)[C@@H](NC(=O)CCc2ccc(S(=O)(=O)NC(=O)c3nc(N4CCc5cccc(C(=O)Nc6nc7ccccc7s6)c5C4)ccc3-c3cnn(CC4CCCCC4)c3C)c(F)c2)C(C)(C)C)cc1 [I-320] | > 10000 nM | –
– | – | 10 to 100 nM | < 100 nM | A (A (>75%)) | Cc1ncsc1-c1ccc(CNC(=O)[C@@H]2C[C@@H](O)CN2C(=O)[C@@H](NC(=O)CCc2cccc(S(=O)(=O)NC(=O)c3nc(N4CCc5cccc(C(=O)Nc6nc7ccccc7s6)c5C4)ccc3-c3cnn(CC4CCCCC4)c3C)c2)C(C)(C)C)cc1 [I-321] | – | 1000 to 10000 nM
100 to 1000 nM | 50 to 75% | 100 to 500 nM | – | – | Cc1cc(C(C(=O)N2C[C@H](O)C[C@H]2C(=O)NCc2ccc(-c3scnc3C)cc2OCCN(C)C2CCN(C(=O)c3nc(N4CCc5cccc(C(=O)Nc6nc7ccccc7s6)c5C4)ccc3-c3cnn(CC4CCCCC4)c3C)CC2)C(C)C)on1 (some centres unmarked) [I-322] | 100 to 1000 nM | –
100 to 1000 nM | 50 to 75% | 100 to 500 nM | – | – | Cc1ncsc1-c1ccc([C@H](C)NC(=O)[C@@H]2C[C@@H](O)CN2C(=O)[C@@H](NC(=O)C2CCN(c3ccc(S(=O)(=O)NC(=O)c4nc(N5CCc6cccc(C(=O)Nc7nc8ccccc8s7)c6C5)ccc4-c4cccc(N(C)C(C)C)c4C)cc3)CC2)C(C)(C)C)cc1 [I-323] | > 10000 nM | –
